Measured values: PubChem BioAssay (NCI)
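Cells were grown in 96-well plates and exposed to each compound for 48 hours at five concentrations; endpoints were interpolated linearly between bracketing concentrations, or set to the highest concentration if not reached. Definition used: TGI = concentration required for complete inhibition of growth.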

Key:
Assay in all cases: DTP human tumour cell line panel, 48 h
HT29 colon = tested on: HT29 colon
IGROV1 ovarian = tested on: IGROV1 ovarian
MALME-3M melanoma = tested on: MALME-3M melanoma
MDA-N = tested on: MDA-N
NCI-H226 lung = tested on: NCI-H226 lung
NCI-H522 lung = tested on: NCI-H522 lung
NCI/ADR-RES ovarian = tested on: NCI/ADR-RES ovarian
OVCAR-3 ovarian = tested on: OVCAR-3 ovarian
OVCAR-8 ovarian = tested on: OVCAR-8 ovarian
SF-295 CNS = tested on: SF-295 CNS
SR leukemia = tested on: SR leukemia
U251 CNS = tested on: U251 CNS
SK-MEL-2 melanoma = tested on: SK-MEL-2 melanoma

SMILES	TGI (HT29 colon)	TGI (IGROV1 ovarian)	TGI (MALME-3M melanoma)	TGI (MDA-N)	TGI (NCI-H226 lung)	TGI (NCI-H522 lung)	TGI (NCI/ADR-RES ovarian)	TGI (OVCAR-3 ovarian)	TGI (OVCAR-8 ovarian)	TGI (SF-295 CNS)	TGI (SR leukemia)	TGI (U251 CNS)	TGI (SK-MEL-2 melanoma)
O=[N+]([O-])C(/C=C(\Cl)[N+](=O)[O-])=C1Nc2ccccc2N1	> 100 µM	> 100 µM	> 100 µM	> 100 µM	97.2 µM	> 100 µM	> 100 µM	> 100 µM	> 100 µM	> 100 µM	75.1 µM	> 100 µM	–
COC(=O)/C=C\C(C#N)(C#N)N=Cc1cccc(OC)c1	10.5 µM	24 µM	4.37 µM	17.2 µM	28.7 µM	3 µM	35.7 µM	26.1 µM	10.5 µM	53.8 µM	> 24.5 µM	32.2 µM	32.4 µM
S=C(N/N=C(\c1ccccc1)c1ccccn1)NC1CCCCC1	> 100 µM	> 100 µM	> 100 µM	> 100 µM	> 100 µM	> 100 µM	1.59 µM	> 100 µM	3.44 µM	> 80.1 µM	> 100 µM	> 100 µM	> 100 µM
COc1ccc(OC)c(NCC(=O)Nn2cnc3ccc(S(=O)(=O)Nc4cc(OC)ccc4OC)cc3c2=O)c1	> 100 µM	> 100 µM	> 100 µM	> 100 µM	> 100 µM	> 100 µM	> 100 µM	> 100 µM	> 100 µM	> 100 µM	> 100 µM	> 100 µM	> 100 µM
COc1cccc(C23CCCC(C2)NCC3Br)c1OC (configuration not stated)	> 100 µM	> 100 µM	> 100 µM	> 100 µM	5.37 µM	53.3 µM	> 100 µM	> 100 µM	> 100 µM	> 100 µM	83.1 µM	> 100 µM	> 100 µM
COc1ccccc1Cc1ccc(C2C=CC3(CC(=O)C=C3C)C(=O)C2)o1 (configuration not stated)	> 100 µM	> 100 µM	47.5 µM	44.2 µM	61.6 µM	37.4 µM	> 100 µM	23.5 µM	37.1 µM	65.9 µM	43.9 µM	30.6 µM	30.8 µM
Cc1cc(Cl)nc2nc(Cl)c(N)cc12	–	22.9 µM	29.3 µM	3.63 µM	51.7 µM	12 µM	58.2 µM	3.27 µM	8.55 µM	29.9 µM	> 25.2 µM	4.3 µM	31.4 µM
Cc1cc(S(=O)(=O)N2CCNNC2=O)c(S)cc1Cl	–	> 100 µM	46.2 µM	> 100 µM	> 100 µM	66.6 µM	> 100 µM	> 100 µM	> 100 µM	> 100 µM	> 100 µM	> 100 µM	> 100 µM
COc1cc2c(c(OC)c1OC)C(=O)[C@@H]1[C@H]2N1C(=O)NCCCl	> 100 µM	> 100 µM	> 100 µM	> 100 µM	> 100 µM	> 100 µM	> 100 µM	> 100 µM	> 100 µM	> 100 µM	> 100 µM	> 100 µM	> 100 µM
CC(=O)Nc1ccc2nc(-c3ccccn3)c(-c3ccccn3)nc2c1	–	> 100 µM	> 100 µM	> 100 µM	> 100 µM	> 100 µM	> 100 µM	> 100 µM	> 100 µM	> 100 µM	> 100 µM	> 100 µM	> 100 µM
COc1ccc(/C=C/C(=O)/C=C/c2ccc(OC)cc2OC)c(OC)c1	12.7 µM	36.1 µM	26.9 µM	6 µM	37.6 µM	8.7 µM	91.4 µM	7.37 µM	41.1 µM	72.5 µM	13.1 µM	23.4 µM	13.1 µM
OC1c2ccccc2CCC1CN1CCN(CCOC(c2ccc(F)cc2)c2ccc(F)cc2)CC1 (configuration not stated)	–	61.9 µM	32.4 µM	36.3 µM	28.3 µM	33.6 µM	35.3 µM	42.6 µM	28.5 µM	46.1 µM	> 100 µM	28.3 µM	36.3 µM
Clc1cc2nn(C3CCCCO3)nc2cc1Cl (configuration not stated)	> 100 µM	> 100 µM	> 100 µM	> 100 µM	> 100 µM	> 100 µM	> 100 µM	> 100 µM	> 100 µM	> 100 µM	> 100 µM	> 100 µM	> 100 µM
Cc1nc(SCC(=O)Nc2ccc(Cl)cc2)c2sc(=S)n(-c3ccccc3)c2n1	> 10 µM	> 10 µM	> 10 µM	> 10 µM	> 10 µM	> 10 µM	> 10 µM	> 10 µM	> 10 µM	> 10 µM	> 10 µM	> 10 µM	> 10 µM
CC(=O)c1[nH]c(NC(C)C)c(C(=S)Nc2ccccc2)c1N	> 100 µM	> 100 µM	89.2 µM	61.3 µM	60.4 µM	31.7 µM	> 100 µM	> 100 µM	94.9 µM	> 100 µM	76.8 µM	–	33 µM
CCCNC(=S)N/N=C(\C)c1ccc(S(=O)(=O)N(C)c2ccccc2)cc1	> 100 µM	> 66.1 µM	> 100 µM	> 100 µM	> 75.6 µM	> 100 µM	> 100 µM	> 100 µM	> 100 µM	58 µM	> 100 µM	> 78 µM	> 100 µM
COC(=O)N1CC(=O)C(C(=O)NC23CC4CC(CC(C4)C2)C3)C1 (configuration not stated)	> 100 µM	> 100 µM	> 100 µM	> 100 µM	> 100 µM	> 100 µM	> 100 µM	> 100 µM	> 100 µM	> 100 µM	> 100 µM	> 100 µM	> 100 µM
O=C1c2ccccc2C(=O)N1CCSCC(CO)SCCN1C(=O)c2ccccc2C1=O (configuration not stated)	> 100 µM	> 100 µM	> 100 µM	> 100 µM	> 100 µM	> 100 µM	> 100 µM	–	> 100 µM	> 100 µM	> 100 µM	> 100 µM	> 100 µM
